Values joined by “and” are separate entries in the source; they are usually repeats but may differ in a detail not shown here. Equal entries are not always repeated.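 Exposure lasted 48 hours, with cells grown in 96-well plates and compounds tested at five concentrations. GI50: concentration for 50% inhibition of growth. TGI: concentration producing complete growth inhibition.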 Where only a bound is given, the exact number is not on record here.

Some test systems named below: UACC-62 melanoma; PC-3 prostate; SF-295 CNS; NCI-H522 lung; MALME-3M melanoma; UACC-257 melanoma; HCT-15 colon; SF-268 CNS; EKVX NSCLC; LOX IMVI melanoma; 786-0 renal; OVCAR-4 ovarian.
Holding throughout (test): growth of human tumour cells (NCI), 48 h

With `CSc1ncc2c(n1)-c1ccccc1OC2NC(C)(C)C` (stereo not given), the TGI with UACC-62 melanoma is more than 100 µM; with PC-3 prostate it was more than 100 µM; in the assay with SF-295 CNS it was more than 100 µM; with NCI-H522 lung, 74.5 µM; with MALME-3M melanoma it was more than 100 µM; in the assay on UACC-257 melanoma, more than 100 µM. The TGI in the assay on HCT-15 colon, in the assay with SF-268 CNS, in the assay on EKVX NSCLC, in the assay on LOX IMVI melanoma, in the assay with 786-0 renal and in the assay on OVCAR-4 ovarian was more than 100 µM each time.
Regarding `O=S(=O)(O)c1cc(O)c2c(O)c(N=Nc3cccc4ccccc34)c(S(=O)(=O)O)cc2c1`, the TGI with UACC-62 melanoma, in the assay with PC-3 prostate, in the assay on SF-295 CNS, in the assay on NCI-H522 lung, with MALME-3M melanoma and in the assay on UACC-257 melanoma was more than 100 µM in each case. Further, the TGI in the assay with HCT-15 colon, with SF-268 CNS, in the assay on EKVX NSCLC, with LOX IMVI melanoma, in the assay with 786-0 renal and in the assay on OVCAR-4 ovarian was more than 100 µM in each case.
As for `Oc1nc(N/N=C/c2ccccc2)[nH]c1/C=C1\C=Nc2ccccc21`, the TGI in the assay on UACC-62 melanoma, with PC-3 prostate, in the assay with SF-295 CNS, with NCI-H522 lung, with MALME-3M melanoma and in the assay on UACC-257 melanoma was more than 100 µM in each case. The TGI in the assay on HCT-15 colon, in the assay with SF-268 CNS, with EKVX NSCLC, in the assay with LOX IMVI melanoma, in the assay on 786-0 renal and with OVCAR-4 ovarian was more than 100 µM in each case.
`Cc1ccc(S(=O)(=O)c2ccc([N+](=O)[O-])o2)cc1`: the TGI with UACC-62 melanoma came to 6.17 µM; in the assay with PC-3 prostate, 3.28 µM; in the assay with SF-295 CNS it was 43.9 µM; in the assay on NCI-H522 lung, 0.578 µM; in the assay on MALME-3M melanoma, 2.64 µM; with UACC-257 melanoma, 3.61 µM. Moreover, the TGI was 2.83 µM with HCT-15 colon; 46.6 µM with SF-268 CNS; 7.79 µM in the assay on EKVX NSCLC; 2.91 µM in the assay with LOX IMVI melanoma; 3.26 µM in the assay with 786-0 renal; more than 22 µM in the assay with OVCAR-4 ovarian.
For `O=c1[nH]c2cc3cccnc3c(Cl)c2nc1CBr`, the TGI was 25.2 µM in the assay with UACC-62 melanoma; 37.4 µM in the assay on PC-3 prostate; 54.1 µM with SF-295 CNS; 28.5 µM in the assay on NCI-H522 lung; 65.5 µM with MALME-3M melanoma; 54.9 µM in the assay on UACC-257 melanoma. Besides, the TGI with HCT-15 colon came to 9.94 µM; with SF-268 CNS it was 64.7 µM; in the assay with EKVX NSCLC, 52.1 µM; in the assay on LOX IMVI melanoma, 31.1 µM; in the assay on 786-0 renal, 25.2 µM; with OVCAR-4 ovarian, 34.2 µM.
`Nc1ccc(-c2nc3ccc(F)cc3s2)cc1`: the TGI in the assay on UACC-62 melanoma is 31.3 µM; with PC-3 prostate it was 92.6 µM; with SF-295 CNS, 60.7 µM; with NCI-H522 lung, more than 100 µM; with MALME-3M melanoma it was more than 100 µM; with UACC-257 melanoma it was more than 100 µM. The TGI in the assay with HCT-15 colon, in the assay with SF-268 CNS, in the assay with EKVX NSCLC, in the assay with LOX IMVI melanoma, with 786-0 renal and in the assay on OVCAR-4 ovarian was more than 100 µM in each case. Besides, in the assay with OVCAR-4 ovarian, the GI50 is 23.1 µM.
On to `Cc1cc(O)ccc1C1(c2ccc(F)cc2)OC(=O)c2ccccc21` (stereo not given), for which the TGI worked out at 16.9 µM in the assay on UACC-62 melanoma; 5.28 µM in the assay on PC-3 prostate; 14.2 µM with SF-295 CNS; 15.6 µM in the assay with NCI-H522 lung; 26.8 µM with MALME-3M melanoma; 26.7 µM with UACC-257 melanoma. Moreover, the TGI with HCT-15 colon is 12.4 µM; in the assay with SF-268 CNS, 39.7 µM; with EKVX NSCLC, 12.6 µM; in the assay with LOX IMVI melanoma, 6.65 µM; in the assay on 786-0 renal, 22.2 µM; with OVCAR-4 ovarian, 1.08 µM.
As for `CC(C)C(C/C=C1/CC(CO)(COC(=O)C2CCCCC2)OC1=O)C(C)C` (stereo not given), the TGI with UACC-62 melanoma is more than 100 µM; in the assay on PC-3 prostate, 35.6 µM; in the assay on SF-295 CNS, 29 µM; in the assay with NCI-H522 lung, 34.1 µM; in the assay on MALME-3M melanoma it was 42.3 µM; in the assay on UACC-257 melanoma, 78.7 µM. Further, the TGI in the assay on HCT-15 colon came to 39.6 µM; in the assay on SF-268 CNS it was 33.8 µM; in the assay on EKVX NSCLC, 42.8 µM; in the assay with LOX IMVI melanoma, 29.4 µM; in the assay with 786-0 renal it was 26.9 µM; in the assay with OVCAR-4 ovarian it was 41.4 µM.
For the molecule `O=C1CCC2(O)C3Cc4ccc(Oc5nnnn5-c5ccccc5)c5c4C2(CCN3CC2CC2)C1O5` (stereo not given), the TGI with UACC-62 melanoma was 76 µM; in the assay with PC-3 prostate, more than 100 µM; in the assay with SF-295 CNS, more than 100 µM; in the assay with NCI-H522 lung it was 61.6 µM; with MALME-3M melanoma, 32.7 µM; in the assay with UACC-257 melanoma, 45.7 µM. Further, the TGI with HCT-15 colon was more than 100 µM; in the assay on SF-268 CNS it was more than 100 µM; in the assay on EKVX NSCLC, more than 100 µM; with LOX IMVI melanoma, 84.6 µM; with 786-0 renal, 41.2 µM; in the assay with OVCAR-4 ovarian, more than 100 µM.
For the molecule `C/C=C/[C@H]1O[C@@](O)([C@@H](C)[C@H](O)[C@H](C)[C@H]2OC(=O)/C(OC)=C/C(C)=C/[C@@H](C)[C@@H](O)[C@@H](CC)[C@@H](O)[C@H](C)C/C(C)=C/C=C/[C@@H]2OC)C[C@H](OC2CC(O)C(OC(N)=O)C(C)O2)[C@@H]1C` (stereo not given in full), the TGI in the assay with UACC-62 melanoma amounted to 13.2 µM; in the assay with PC-3 prostate, 15.1 µM; in the assay on SF-295 CNS, 0.893 µM; in the assay with NCI-H522 lung, 7.39 µM; with MALME-3M melanoma, 0.73 µM; with UACC-257 melanoma it was 0.568 µM. Further, the TGI amounted to 12.6 µM with HCT-15 colon; 25 µM in the assay on SF-268 CNS; 20.5 µM with EKVX NSCLC; 0.0614 µM in the assay with LOX IMVI melanoma; 15.7 µM with 786-0 renal; 20.8 µM in the assay with OVCAR-4 ovarian.
Consider `Cc1ccc(OCC2OC(n3cnc4c(Cl)ncnc43)CC2Oc2ccc(C)cc2)cc1` (stereo not given), for which the GI50 is 9.01 µM and 22.8 µM in the assay with UACC-62 melanoma; 3.53 µM and 17.6 µM with PC-3 prostate; 20.2 µM and 2.68 µM in the assay with MALME-3M melanoma; 6.24 µM and 16 µM in the assay on UACC-257 melanoma; 1.94 µM and 11.7 µM in the assay with HCT-15 colon; 2.41 µM and 15 µM with LOX IMVI melanoma. The GI50 with OVCAR-4 ovarian was 2.57 µM and 10.6 µM. Besides, the TGI in the assay on UACC-62 melanoma was 25.9 µM and > 59 µM; in the assay on PC-3 prostate, 9.35 µM and 34.3 µM; with SF-295 CNS it was 30.2 µM and 38.1 µM; in the assay on NCI-H522 lung, 6.66 µM and 3.82 µM; in the assay on MALME-3M melanoma it was 55.8 µM and 8.66 µM; with UACC-257 melanoma, 18.5 µM and 37.1 µM. Also, the TGI with HCT-15 colon was 4.28 µM and 41.6 µM; with SF-268 CNS it was 21.8 µM and 26.9 µM; in the assay with EKVX NSCLC it was 7.18 µM and 10.2 µM; with LOX IMVI melanoma, 10.8 µM and > 45.9 µM; in the assay with 786-0 renal, > 73.4 µM and 51.7 µM; in the assay with OVCAR-4 ovarian, 13.1 µM and > 56.6 µM.

These data come from PubChem BioAssay (NCI).
